Columns and labels:
[1] = test system: mice anticoagulated with rivaroxaban; assay: In vivo saphenous vein bleeding model in mice anticoagulated with rivaroxaban
Description: FIG. 29: In vivo analysis of procoagulant potential of OK-1111 and OKL-1147. Except for controls, animals were treated with rivaroxaban for 4 days and cyclodextrins were administered 5 min prior bleeding assay.
All animal protocols were approved by the Institutional Animal Care and Use Committee of the University of North Carolina. C57BL6/J mice were purchased from Charles Rivers Laboratories (Willmington, Mass.). Bleeding studies were done essentially as previously described Pastoft et al. (Haemophilia 2012; 18:782-8). Mice were anesthetized with isoflurane throughout all procedures. The hair on the ventral side of both hind limbs was removed. The animals were placed supine on a temperature and ECG monitoring board. The paws were gently restrained by looping soft polyethylene tubing around them and attaching the tubing to the ECG board. The skin on the left and right ventral hind limb was incised which exposes a length of the saphenous neurovascular bundle; the bundle was covered with normal saline to prevent drying. To assess haemostasis, the right saphenous vein was transected by piercing it with a 23-G needle followed by a longitudinal incision made in the distal portion of the vessel. Blood was gently wicked away until haemostasis occurred. The clot was then removed to restart bleeding and the blood was again wicked away until haemostasis occurs again. Clot disruption was repeated after every incidence of haemostasis for 30 minutes. Mice were fed chow that contained 0.1 mg rivaroxaban per g of chow. The mice were on this diet for 4 days to allow them to reach a steady state. Cyclodextrins were administered by a tail vein injection 5 minutes before the start of the bleeding assay. Two parameters were measured: 1) the number of times that haemostasis occurs in a 30 minute period, and 2) the time required for each haemostasis.

[2] = test system: thrombin generation in pooled normal plasma; assay: Calibrated Automated Thrombogram thrombin generation assay in pooled normal plasma; assay type: biochemical, human; conditions: no anticoagulant; cyclodextrin 100 μM unless otherwise indicated; 1 pM TF
Description: (§1) FIGS. 3-8, 12, 14-19 and 22-27: Pooled normal plasma was spiked with cyclodextrins (100 μM, unless otherwise indicated) and anticoagulants. The concentrations of the anticoagulants were 100 ng/ml for dabigatran (A), 100 ng/ml for rivaroxaban (B), 60 ng/ml for apixaban (C), 60 ng/ml for edoxaban (D). The plasmas were subjected to thrombin generation analysis as described in the Materials and Methods section with 1 pM tissue factor (TF) as initiator of coagulation.
(§2) The Calibrated Automated Thrombogram® assays the generation of thrombin in clotting plasma using a microtiter plate reading fluorometer (Fluoroskan Ascent, ThermoLab systems, Helsinki, Finland) and Thrombinoscope® software (Thrombinoscope BV, Maastricht, The Netherlands). The assay was carried out as described by Hemker et al. (Pathofysiol. IIaemost. Thromb. 2003, 33, 4-15), and the Thrombinoscope® manual. Coagulation was triggered by recalcification in the presence of 1 or 5 pM recombinant human tissue factor (Innovin®, Siemens, Marburg, Germany), 4 μM phospholipids, and 417 μM fluorogenic substrate Z-Gly-Gly-Arg-AMC (Bachem, Bubendorf, Switzerland). Fluorescence was monitored using the Fluoroskan Ascent fluorometer (ThermoLabsystems, Helsinki, Finland), and the lag time, peak thrombin, velocity index and area under the curve (ETP) were calculated using the Thrombinoscope® software (Thrombinoscope BV).
Thrombin generation analyses were performed in pooled normal plasma with and without the addition of anticoagulants.

[3] = test system: plasma deficient in coagulation factor VIII; assay: Thrombin generation assay in plasma deficient in coagulation factor VIII; assay type: biochemical, human
Description: FIG. 20: Plasma deficient in coagulation factor VIII was spiked with cyclodextrin OKL-1111 (A), OKL-1180 (B), and OKL-1187 (C) at the indicated concentrations.
as §2

[4] = test system: plasma deficient in coagulation factor IX; assay: Thrombin generation assay in plasma deficient in coagulation factor IX; assay type: biochemical, human
Description: as §2

[5] = test system: thrombin generation in pooled normal plasma spiked with anticoagulants; assay: Thrombin generation assay in pooled normal plasma spiked with anticoagulants; assay type: biochemical, human; conditions: for effect on the anticoagulant effect of apixaban: apixaban 60 ng/ml; for effect on the anticoagulant effect of apixaban / effect on the anticoagulant effect of dabigatran / effect on the anticoagulant effect of edoxaban / effect on the anticoagulant effect of rivaroxaban: cyclodextrin 100 μM, 1 pM TF; for effect on the anticoagulant effect of dabigatran: dabigatran 100 ng/ml; for effect on the anticoagulant effect of edoxaban: edoxaban 60 ng/ml; for effect on the anticoagulant effect of rivaroxaban: rivaroxaban 100 ng/ml
Description: as §1
FIG. 9: Pooled normal plasma was spiked with OKL-1111 (100 μM, unless otherwise indicated (A)) and anticoagulants (B-E). The concentrations of the anticoagulants were 100 ng/ml for dabigatran (B), 100 ng/ml for rivaroxaban (C), 60 ng/ml for apixaban (D), 60 ng/ml for edoxaban (E). The plasmas were subjected to thrombin generation analysis as described in the Materials and Methods section with 1 pM tissue factor (TF) as initiator of coagulation.
FIG. 10: Pooled normal plasma was spiked with OKL-1111 (100 μM) and anticoagulants (A-F). The concentrations of the anticoagulants were 2 μg/ml for fondaparinux (A), 0.4 U/ml for nadroparin (B), 0.1 U/ml for tinzaparin (C), 0.03 U/ml for unfractionated heparin (UFH) (D), 0.5 U/ml for hirudin (E) and 10 μg/ml for bivalirudin (F). The plasmas were subjected to thrombin generation analysis as described in the Materials and Methods section with 1 pM tissue factor (TF) as initiator of coagulation.
as §2

[6] = test system: plasma of a hemophilia A patient containing anti-FVIII antibodies; assay: Thrombin generation in plasma of a hemophilia A patient with anti-factor VIII antibodies; assay type: biochemical, human; conditions: anti-FVIII antibodies 50 BU
Description: FIG. 28: Effect of OKL-1111 (A), OKL-1180 (B) and OKL-1187 (C) on coagulation in plasma of a hemophilia A patient with anti-factor VIII antibodies. BU=Bethesda Units.
as §2
The patient had developed antibodies against factor VIII prior to plasma withdrawal. The plasma contained high levels of anti-FVIII antibodies (50 BU).

Structure (SMILES)	clotting times ([1]; mice fed rivaroxaban for 4 days, cyclodextrin by tail vein injection 5 min before bleeding assay, OKL-1111 dose expected to give 25 μM in plasma)	procoagulant effect in normal plasma [2]	procoagulant effect in factor VIII deficient plasma [3]	procoagulant activity in factor IX deficient plasma [4]	procoagulant effect in plasma containing anticoagulants (not specified / NOACs) [5]	effect on the anticoagulant effect of apixaban [5]	effect on the anticoagulant effect of dabigatran [5]	effect on the anticoagulant effect of edoxaban [5]	effect on the anticoagulant effect of rivaroxaban [5]	thrombin generation in hemophilia A patient plasma [6]	number of clots in 30 minutes ([1]; mice fed rivaroxaban (0.1 mg per g of chow, 4 days), no cyclodextrin, non-anticoagulated about 20-25)	bleeding time ([1]; mice fed rivaroxaban versus non-anticoagulated mouse)
NCC1OC2OC3C(CN)OC(OC4C(CN)OC(OC5C(CN)OC(OC6C(CN)OC(OC7C(CN)OC(OC8C(CN)OC(OC9C(CN)OC(OC1C(O)C2O)C(O)C9O)C(O)C8O)C(O)C7O)C(O)C6O)C(O)C5O)C(O)C4O)C(O)C3O (stereo not drawn) [OKL-1147, reference compound]	without any significant effect	no procoagulant effect										
O=C(O)CCCCSCC1OC2OC3C(CSCCCCC(=O)O)OC(OC4C(CSCCCCC(=O)O)OC(OC5C(CSCCCCC(=O)O)OC(OC6C(CSCCCCC(=O)O)OC(OC7C(CSCCCCC(=O)O)OC(OC8C(CSCCCCC(=O)O)OC(OC9C(CSCCCCC(=O)O)OC(OC1C(O)C2O)C(O)C9O)C(O)C8O)C(O)C7O)C(O)C6O)C(O)C5O)C(O)C4O)C(O)C3O (stereo not drawn) [OKL-1171]		significant procoagulant activity	procoagulant effects									
O=C(O)CCCCCCSCC1OC2OC3C(CSCCCCCCC(=O)O)OC(OC4C(CSCCCCCCC(=O)O)OC(OC5C(CSCCCCCCC(=O)O)OC(OC6C(CSCCCCCCC(=O)O)OC(OC7C(CSCCCCCCC(=O)O)OC(OC8C(CSCCCCCCC(=O)O)OC(OC9C(CSCCCCCCC(=O)O)OC(OC1C(O)C2O)C(O)C9O)C(O)C8O)C(O)C7O)C(O)C6O)C(O)C5O)C(O)C4O)C(O)C3O (stereo not drawn) [OKL-1172]		significant procoagulant activity	procoagulant effects	procoagulant activity								
OCCCCSCC1OC2OC3C(CSCCCCO)OC(OC4C(CSCCCCO)OC(OC5C(CSCCCCO)OC(OC6C(CSCCCCO)OC(OC7C(CSCCCCO)OC(OC8C(CSCCCCO)OC(OC9C(CSCCCCO)OC(OC1C(O)C2O)C(O)C9O)C(O)C8O)C(O)C7O)C(O)C6O)C(O)C5O)C(O)C4O)C(O)C3O (stereo not drawn) [OKL-1174]		strong procoagulant effects	procoagulant effects	procoagulant activity	strong procoagulant effects							
OCCCSCC1OC2OC3C(CSCCCO)OC(OC4C(CSCCCO)OC(OC5C(CSCCCO)OC(OC6C(CSCCCO)OC(OC7C(CSCCCO)OC(OC8C(CSCCCO)OC(OC1C(O)C2O)C(O)C8O)C(O)C7O)C(O)C6O)C(O)C5O)C(O)C4O)C(O)C3O (stereo not drawn) [OKL-1181]		significant procoagulant activity	procoagulant effects	procoagulant activity								
O=C(O)CCCCCSCC1OC2OC3C(CO)OC(OC4C(CO)OC(OC5C(CO)OC(OC6C(CO)OC(OC7C(CO)OC(OC1C(O)C2O)C(O)C7O)C(O)C6O)C(O)C5O)C(O)C4O)C(O)C3O (stereo not drawn) [OKL-1186, Alpha-mono-S—C6-acid]		substantial procoagulant effect				antagonized	antagonized	antagonized	antagonized			
O=C(O)CCCCCSCC1OC2OC3C(CSCCCCCC(=O)O)OC(OC4C(CSCCCCCC(=O)O)OC(OC5C(CSCCCCCC(=O)O)OC(OC6C(CSCCCCCC(=O)O)OC(OC7C(CSCCCCCC(=O)O)OC(OC1C(O)C2O)C(O)C7O)C(O)C6O)C(O)C5O)C(O)C4O)C(O)C3O (stereo not drawn) [OKL-1187, Alpha-per-S—C6-acid]		very strong procoagulant effect	procoagulant effects			strongly antagonized	strongly antagonized	strongly antagonized	strongly antagonized	concentration-dependently stimulated thrombin generation		
O=C(O)CCCCCCSCC1OC2OC3C(CO)OC(OC4C(CO)OC(OC5C(CO)OC(OC6C(CO)OC(OC7C(CO)OC(OC8C(CO)OC(OC1C(O)C2O)C(O)C8O)C(O)C7O)C(O)C6O)C(O)C5O)C(O)C4O)C(O)C3O (stereo not drawn) [OKL-1188]		strong procoagulant effect	procoagulant effects	procoagulant activity		antagonized	antagonized	antagonized	antagonized			
OCCCCSCC1OC2OC3C(CO)OC(OC4C(CO)OC(OC5C(CO)OC(OC6C(CO)OC(OC7C(CO)OC(OC8C(CO)OC(OC1C(O)C2O)C(O)C8O)C(O)C7O)C(O)C6O)C(O)C5O)C(O)C4O)C(O)C3O (stereo not drawn) [OKL-1189]		strong procoagulant activity	procoagulant effects	procoagulant activity		strongly antagonized	strongly antagonized	strongly antagonized	strongly antagonized			
O=C(O)CCCCCCSCC1OC2OC3C(CO)OC(OC4C(CO)OC(OC5C(CO)OC(OC6C(CO)OC(OC7C(CO)OC(OC8C(CO)OC(OC9C(CO)OC(OC1C(O)C2O)C(O)C9O)C(O)C8O)C(O)C7O)C(O)C6O)C(O)C5O)C(O)C4O)C(O)C3O (stereo not drawn) [OKL-1190]		procoagulant effect				antagonized	antagonized	antagonized	antagonized			
OCCCCSCC1OC2OC3C(CO)OC(OC4C(CO)OC(OC5C(CO)OC(OC6C(CO)OC(OC7C(CO)OC(OC8C(CO)OC(OC9C(CO)OC(OC1C(O)C2O)C(O)C9O)C(O)C8O)C(O)C7O)C(O)C6O)C(O)C5O)C(O)C4O)C(O)C3O (stereo not drawn) [OKL-1191]		Strong Procoagulant Activity	procoagulant effects	procoagulant activity		Antagonized	Antagonized	Antagonized	Antagonized			
O=C(NC[C@H]1CN(c2ccc(N3CCOCC3=O)cc2)C(=O)O1)c1ccc(Cl)s1 [rivaroxaban]											10-13 clots	roughly doubled

— patent publication US10813944B2, “Cyclodextrins as procoagulants” (STICHTING SANQUIN BLOEDVOORZIENING, priority 2016, dated 2020)
